One test concerns the target COX I (Homo sapiens, UniProt P23219). Kind of test: radiometric assay, COX I inhibition (human recombinant, baculovirus expressed, partially purified). Particulars: radiometric assay, human recombinant baculovirus expressed enzyme; read-out: COX I IC50 (Table 2). It counts as biochemical. Set-up: A 2 Kb fragment containing the coding region of COX I; made in house; host or cells: Sf9 insect cells, baculovirus (cDNA from Oxford Biomedical Research). Here is the method: (§1) Human prostaglandin G/H synthase I and II ("COX I" and "COX II") were expressed in the baculovirus expression system and purified to high levels.
(§2) As described above, human recombinant COX I and COX II were cloned and expressed in a baculovirus system. Partially purified COX I and COX II enzymes were used for screening compounds for their ability to inhibit COX I and COX II activity, as described below.
(§3) Compound (16), in 2 μl DMSO, and control samples (carrier vehicles only) were mixed with COX I or COX II samples (e.g. fractions from the chromatography columns) in polypropylene tubes and preincubated with 2 mM phenol for 5 minutes and then with 1 μM hematin for an additional 5 minutes. The 150 μl reaction mixture consisted of 50 mM Tris --HCl, pH 7.9, 2 mM EDTA, 10% glycerol, 200 μM phenol, 1 μM hematin, 1-25 μl sample and 20 μM 1-[^14 C] arachidonate (80.000-100.000 cpm/tube). After 45 seconds at room temperature, the reaction was terminated by adding 200 μl of 2N HCl and 750 μl water. An aliquot (950 μl) of the reaction mixture was loaded onto a 1 ml C~ Sep-Pak (J. T. Baker, Phillipsburg, N.J.) which had been previously washed with 2-3 ml methanol and equilibrated with 5-6 ml distilled water. Oxygenated products were quantitatively eluted with 3 ml of acetonitrile, H2 O and acetic acid (50:50:0.1, v/v) and the radioactivity in the eluate determined in a scintillation counter.
(§4) Human recombinant 10 min incubation with Compound (16)
(§5) baculovirus 45 sec incubation with 20 μM AA
(§6) partially purified Separation of radioactive products

The target in another test is T1, COX II (Homo sapiens, UniProt P35354).
T1 sequence (P35354 18-604): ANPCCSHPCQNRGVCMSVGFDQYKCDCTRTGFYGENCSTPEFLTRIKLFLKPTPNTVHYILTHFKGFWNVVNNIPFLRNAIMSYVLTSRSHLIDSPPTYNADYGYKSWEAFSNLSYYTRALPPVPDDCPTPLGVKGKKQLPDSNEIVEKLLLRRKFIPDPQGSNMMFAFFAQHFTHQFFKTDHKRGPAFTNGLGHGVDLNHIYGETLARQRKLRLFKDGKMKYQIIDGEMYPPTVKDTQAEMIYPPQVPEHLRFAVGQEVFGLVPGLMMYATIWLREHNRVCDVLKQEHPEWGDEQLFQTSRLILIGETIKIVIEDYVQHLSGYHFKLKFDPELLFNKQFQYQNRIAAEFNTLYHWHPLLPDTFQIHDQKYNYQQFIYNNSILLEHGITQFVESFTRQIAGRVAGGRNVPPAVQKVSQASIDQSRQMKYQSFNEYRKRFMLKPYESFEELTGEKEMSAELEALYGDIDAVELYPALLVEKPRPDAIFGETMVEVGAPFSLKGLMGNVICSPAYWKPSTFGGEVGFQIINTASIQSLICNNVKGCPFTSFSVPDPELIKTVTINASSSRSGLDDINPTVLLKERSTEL
Put plainly: radiometric assay, COX II inhibition (human recombinant, baculovirus expressed, partially purified). Particulars: radiometric assay, human recombinant baculovirus expressed enzyme; read-out: COX II IC50 (Table 2). It counts as biochemical. Set-up: A 1.8 Kb DNA fragment containing the coding region of human COX II was generated by PCR; made in house; host or cells: Sf9 insect cells, baculovirus. As for the experimental part: as §1, §2, §3, §4, §5, §6

By IC50 is commonly meant the concentration needed to halve the response being measured.

COX I, sequence (P23219 24-599): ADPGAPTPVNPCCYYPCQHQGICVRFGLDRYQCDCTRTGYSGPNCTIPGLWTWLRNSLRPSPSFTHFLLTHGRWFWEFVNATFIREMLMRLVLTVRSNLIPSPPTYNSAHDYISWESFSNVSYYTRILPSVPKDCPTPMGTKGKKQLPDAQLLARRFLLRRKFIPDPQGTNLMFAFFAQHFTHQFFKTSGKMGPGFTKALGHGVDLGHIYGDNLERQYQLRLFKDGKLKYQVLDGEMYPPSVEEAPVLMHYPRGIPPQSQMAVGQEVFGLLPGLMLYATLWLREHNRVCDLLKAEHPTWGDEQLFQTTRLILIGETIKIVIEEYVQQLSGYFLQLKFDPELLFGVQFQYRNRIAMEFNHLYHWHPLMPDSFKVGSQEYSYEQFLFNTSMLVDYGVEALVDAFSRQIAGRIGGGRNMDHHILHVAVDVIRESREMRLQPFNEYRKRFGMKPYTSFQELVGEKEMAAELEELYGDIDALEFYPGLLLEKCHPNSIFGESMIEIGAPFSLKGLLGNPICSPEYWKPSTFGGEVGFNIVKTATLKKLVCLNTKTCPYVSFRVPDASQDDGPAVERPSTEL

Regarding “6-(5-benzoyl-3-chloro-4-methyl-1H-pyrrol-2-ylmethyl)-2H-pyridazin-3-one [Compound 89]”, the IC50 on COX I was 8.1 µM; at COX II it was 2.3 µM.

For `Cc1cc(C(C#N)c2ccc(=O)[nH]n2)n(C)c1C(=O)c1ccc(Cl)cc1` (stereo not drawn) [Compound 9, [5-(4-chloro-benzoyl)-1,4-dimethyl-1H-pyrrol-2-yl]-(6-oxo-1,6-dihydro-pyridazin-3-yl)acetonitrile], the IC50 at COX I was > 100 µM; at COX II, 0.63 µM.

Take `Cc1cc(C(C)c2ccc(=O)[nH]n2)n(C)c1C(=O)c1ccc(Cl)cc1` (stereo not drawn) [Compound 18, 6-{1-[5-(4-chloro-benzoyl)-1,4-dimethyl-1H-pyrrol-2-yl]-ethyl}-2H-pyridazin-3-one]: the IC50 on COX I is 15 µM; on COX II, 1.5 µM.

Take `Cc1c(Cl)c(Cc2ccc(=O)[nH]n2)n(C)c1C(=O)c1ccc(Cl)cc1` [Compound 24, 6-[3-chloro-5-(4-chloro-benzoyl)-1,4-dimethyl-1H-pyrrol-2-ylmethyl]-2H-pyridazin-3-one]: the half-maximal inhibitory concentration (IC50) on COX I was determined as 440 µM; on COX II it was 0.7 µM.

For the compound `Cc1c(Br)c(Cc2ccc(=O)[nH]n2)n(C)c1C(=O)c1ccc(Cl)cc1` [Compound 25, 6-[3-bromo-5-(4-chloro-benzoyl)-1,4-dimethyl-1H-pyrrol-2-ylmethyl]-2H-pyridazin-3-one], the IC50 at COX I worked out at 277 µM; at COX II, 1.8 µM.

Turning to `Cc1ccc(C(=O)c2c(C)cc(Cc3ccc(=O)[nH]n3)n2C)cc1` [Compound 30, 6-[1,4-dimethyl-5-(4-methyl-benzoyl)-1H-pyrrol-2-ylmethyl]-2H-pyridazin-3-one], the IC50 at COX I worked out at 40 µM; on COX II it was 0.5 µM.

With `COc1ccc(C(=O)c2c(C)cc(Cc3ccc(=O)[nH]n3)n2C)cc1` [Compound 31, 6-[1,4-dimethyl-5-(4-methoxy-benzoyl)-1-H-pyrrol-2-ylmethyl]-2H-pyridazin-3-one], the values for the IC50 on COX I and on COX II were 35 µM and 0.2 µM, respectively.

Turning to `Cc1cc(Cc2ccc(=O)[nH]n2)n(C)c1C(=O)c1ccccc1` [Compound 32, 6-[5-benzoyl-1,4-dimethyl-1H-pyrrol-2-ylmethyl]-2H-pyridazin-3-one], the values for the 50% inhibitory concentration (IC50) on COX I and at COX II were 26.7 µM and 1.5 µM, respectively.

Consider `C=Cc1ccc(C(=O)c2c(C)cc(Cc3ccc(=O)[nH]n3)n2C)cc1` [Compound 33, 6-[1,4-dimethyl-5-(4-vinyl-benzoyl)-1H-pyrrol-2-ylmethyl]-2H-pyridazin-3-one], for which the concentration for half-maximal inhibition (IC50) at COX I turned out to be 31.7 µM; on COX II, 0.44 µM.

As to `Cc1cc(Cc2ccc(=O)[nH]n2)n(C)c1C(=O)c1ccc(Br)cc1` [Compound 35, 6-[5-(4-bromo-benzoyl)-1,4-dimethyl-1H-pyrrol-2-ylmethyl]-2H-pyridazin-3-one], the half-maximal inhibitory concentration (IC50) on COX I was found to be 86 µM; on COX II, 0.1 µM.

`CCc1ccc(C(=O)c2c(C)cc(Cc3ccc(=O)[nH]n3)n2C)cc1` [Compound 36, 6-[1,4-dimethyl-5-(4-ethyl-benzoyl)-1H-pyrrol-2-ylmethyl]-2H-pyridazin-3-one]: the IC50 amounted to 38 µM on COX I and 0.4 µM at COX II.

For `Cn1c(Cc2ccc(=O)[nH]n2)ccc1C(=O)c1ccc(C2CC2)cc1` [Compound 42, 6-[5-(4-cyclopropyl-benzoyl)-1-methyl-1H-pyrrol-2-ylmethyl]-2H-pyridazin-3-one], the IC50 on COX I was determined as 82 µM; at COX II, 0.72 µM.

Take `CSc1ccc(C(=O)c2ccc(Cc3ccc(=O)[nH]n3)n2C)cc1` [Compound 43, 6-[1-methyl-5-(4-methylthio-benzoyl)-1H-pyrrol-2-ylmethyl]-2H-pyridazin-3-one]: the half-maximal inhibitory concentration (IC50) worked out at 23 µM at COX I and 0.3 µM at COX II.

In the case of `CCc1ccc(C(=O)c2ccc(Cc3ccc(=O)[nH]n3)n2C)cc1` [Compound 46, 6-[5-(4-ethyl-benzoyl)-1-methyl-1H-pyrrol-2-ylmethyl]-2H-pyridazin-3-one], the 50% inhibitory concentration (IC50) is > 100 µM on COX I and 7.2 µM on COX II.

`COc1ccc(C(=O)c2ccc(Cc3ccc(=O)[nH]n3)n2C)cc1` [Compound 53, 6-[5-(4-methoxy-benzoyl)-1-methyl-1H-pyrrol-2-ylmethyl]-2H-pyridazin-3-one]: the results for the IC50 on COX I and at COX II were 420 µM and 1 µM, respectively.

Take `C=Cc1ccc(C(=O)c2ccc(Cc3ccc(=O)[nH]n3)n2C)cc1` [Compound 54, 6-[1-methyl-5-(4-vinyl-benzoyl)-1H-pyrrol-2-ylmethyl]-2H-pyridazin-3-one]: the IC50 at COX I amounted to 190 µM; at COX II it was 0.44 µM.

Take `Cn1c(Cc2ccc(=O)[nH]n2)ccc1C(=O)c1ccc(Br)cc1` [Compound 57, 6-[5-(4-bromo-benzoyl)-1-methyl-1H-pyrrol-2-ylmethyl]-2H-pyridazin-3-one]: the values for the IC50 on COX I and at COX II were 700 µM and 4.6 µM, respectively.

In the case of `Cn1c(Cc2ccc(=O)[nH]n2)ccc1C(=O)c1cccs1` [Compound 62, 6-[1-methyl-5-(thienyl-2-carbonyl)-1H-pyrrol-2-ylmethyl]-2H-pyridazin-3-one], the IC50 worked out at 140 µM at COX I and 7 µM on COX II.

Take `Cc1ccc(C(=O)c2c(Cl)cc(Cc3ccc(=O)[nH]n3)n2C)cc1` [Compound 80, 6-[4-chloro-1-methyl-5-(4-methyl-benzoyl)-1H-pyrrol-2-ylmethyl]-2H-pyridazin-3-one]: the IC50 at COX I was ≥ 1000 µM; at COX II it was 0.7 µM.

`Cn1c(Cc2ccc(=O)[nH]n2)cc(Cl)c1C(=O)c1ccc(Cl)cc1` [Compound 81, 6-[4-chloro-5-(4-chloro-benzoyl)-1-methyl-1H-pyrrol-2-ylmethyl]-2H-pyridazin-3-one]: the concentration for half-maximal inhibition (IC50) is > 300 µM on COX I and 0.44 µM on COX II.

As to `COc1ccc(C(=O)c2c(Cl)cc(Cc3ccc(=O)[nH]n3)n2C)cc1` [Compound 82, 6-[4-chloro-5-(4-methoxy-benzoyl)-1-methyl-1H-pyrrol-2-ylmethyl]-2H-pyridazin-3-one], the half-maximal inhibitory concentration (IC50) at COX I came out at 20.6 µM; on COX II, 0.81 µM.

With `Cc1ccc(C(=O)c2cc(Cl)c(Cc3ccc(=O)[nH]n3)n2C)cc1` [Compound 87, 6-[3-chloro-1-methyl-5-(4-methyl-benzoyl)-1H-pyrrol-2-ylmethyl]-2H-pyridazin-3-one], the IC50 on COX I was > 1000 µM; at COX II, 0.9 µM.

Turning to `COc1ccc(C(=O)c2cc(Cl)c(Cc3ccc(=O)[nH]n3)n2C)cc1` [Compound 88, 6-[3-chloro-5-(4-methoxy-benzoyl)-1-methyl-1H-pyrrol-2-ylmethyl]-2H-pyridazin-3-one], the 50% inhibitory concentration (IC50) came to 100 µM at COX I and 0.55 µM on COX II.

Turning to `Cc1ccc(C(=O)c2ccc(C(C)c3ccc(=O)[nH]n3)n2C)cc1` (stereo not drawn) [Compound 95, 6-{1-[1-methyl-5-(4-methyl-benzoyl)-1H-pyrrol-2-yl]-ethyl}-2H-pyridazin-3-one], the IC50 at COX I was found to be 140 µM; on COX II, 1.3 µM.

On to `Cc1ccc(C(=O)c2ccc(Cc3ccc(=O)[nH]n3)n2C)cc1` [Compound 100, 6-[1-methyl-5-(4-methyl-benzoyl)-1H-pyrrol-2-ylmethyl]-2H-pyridazin-3-one], for which the half-maximal inhibitory concentration (IC50) at COX I worked out at 300 µM; on COX II it was 1.5 µM.

Take `Cc1ccc(C(=O)c2ccc(CC3=NNC(=O)CC3)n2C)cc1` [Compound 102, 6-[1-methyl-5-(4-methyl-benzoyl)-1H-pyrrol-2-ylmethyl]-4,5-dihydro-2H-pyridazin-3-one]: the IC50 came out at 260 µM at COX I and 3.1 µM at COX II.

For the compound `CSc1cc(Cc2ccc(=O)[nH]n2)n(C)c1C(=O)c1ccc(C)cc1` [Compound 107, 6-(1-methyl-5-(4-methyl-benzoyl)-4-methylthio-1H-pyrrol-2-ylmethyl)-2H-pyridazin-3-one], the 50% inhibitory concentration (IC50) on COX I was determined as 21 µM; on COX II it was 2.3 µM.

(Values after patent publication US5622948A, “Pyrrole pyridazine and pyridazinone anti-inflammatory agents” (Syntex (U.S.A.) Inc., priority 1994, dated 1997).)
